PubChem BioAssay (NCI)
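All cell lines were grown in 96-well plates and treated with compound for 48 hours. Here, GI50 denotes the concentration required for 50% inhibition of growth. TGI is the concentration that stops growth completely.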

Columns and labels:
Test in all cases: NCI tumour cell line growth inhibition, 48 h
COLO 205 colon = test system: COLO 205 colon
HCC-2998 colon = test system: HCC-2998 colon
HOP-62 NSCLC = test system: HOP-62 NSCLC
NCI-H23 lung = test system: NCI-H23 lung
OVCAR-8 ovarian = test system: OVCAR-8 ovarian
SF-539 CNS = test system: SF-539 CNS
SK-MEL-2 melanoma = test system: SK-MEL-2 melanoma
TK-10 renal = test system: TK-10 renal
UACC-62 melanoma = test system: UACC-62 melanoma
HCT-15 colon = test system: HCT-15 colon

Row | SMILES | TGI (COLO 205 colon) [µM] | TGI (HCC-2998 colon) [µM] | TGI (HOP-62 NSCLC) [µM] | TGI (NCI-H23 lung) [µM] | TGI (OVCAR-8 ovarian) [µM] | TGI (SF-539 CNS) [µM] | TGI (SK-MEL-2 melanoma) [µM] | TGI (TK-10 renal) [µM] | TGI (UACC-62 melanoma) [µM] | TGI (HCT-15 colon) [µM] | GI50 (HCC-2998 colon) [µM] | GI50 (HCT-15 colon) [µM] | GI50 (HOP-62 NSCLC) [µM] | GI50 (NCI-H23 lung) [µM] | GI50 (OVCAR-8 ovarian) [µM] | GI50 (SF-539 CNS) [µM] | GI50 (SK-MEL-2 melanoma) [µM] | GI50 (TK-10 renal) [µM] | GI50 (UACC-62 melanoma) [µM]
1 | Cc1ccc(S(=O)(=O)N2c3ccccc3[C@H]3CCc4c([nH]c5ccccc45)[C@H]32)cc1 | > 100 | > 100 | > 100 | > 100 | > 100 | > 100 | > 100 | > 100 | > 100 |  |  |  |  |  |  |  |  |  | 
2 | CC(C)OC(=O)Nc1cccc(Cl)c1 | > 100 | > 100 | > 100 | > 100 | > 100 | > 100 | > 100 | > 100 | > 100 | > 100 |  |  |  |  |  |  |  |  | 
3 | CC1=C(C#N)C23C(=O)c4ccccc4C(O)=C2C(=O)C=CC3(O)N1 (configuration not stated) | > 100 | 23 | 51 | 31.9 | > 100 | 8.83 | 22.5 | 35.7 | 6.4 | > 100 |  |  |  |  |  |  |  |  | 
4 | CO[C@H]1ON=C(c2c(C)cc(C)cc2C)[C@@H]1C1(c2ccccc2)ON=C(c2c(C)cc(C)cc2C)O1 (some centres not stated) | > 100 | > 100 |  | > 100 | > 100 | > 100 | > 100 | > 100 | > 100 |  |  |  |  |  |  |  |  |  | 
5 | CN1C(=O)CN2C(Cl)(Cl)C2(c2ccccc2F)c2cc([N+](=O)[O-])ccc21 (configuration not stated) | > 100 | 86 | > 100 | > 100 | > 100 |  | > 100 | > 100 | > 100 | > 100 |  |  |  |  |  |  |  |  | 
6 | Cn1cc(-c2csc(-c3cn(C)c4ccc(Br)cc34)n2)c2cnccc21 |  | 3.57 | 3.49 | 3.65 | 3.61 | 3.23 | 3.76 | 3.22 | 3.21 | 3.25 | 1.9 | 1.75 | 1.9 | 1.93 | 1.9 | 1.8 | 1.93 | 1.71 | 1.72
7 | COc1ccc(CC2c3cc(OC)c(OC)c(OC)c3CC[N+]2(C)C)cc1Oc1ccc(CC2c3cc4c(c(OC)c3CC[N+]2(C)C)OCO4)cc1 (configuration not stated) | > 100 | > 100 |  | > 100 | > 100 |  | > 100 | > 100 | > 100 | > 100 |  |  |  |  |  |  |  |  | 
8 | CC(=O)OCc1ccc2oc(=O)c(C(=O)Oc3cccc(Cl)c3)cc2c1 | 94.4 | 39.3 | > 100 | > 100 | > 100 | > 100 | > 100 | 91.6 | 34.2 | > 100 |  |  |  |  |  |  |  |  | 
9 | CCCCC(C(=O)N/N=C/c1ccc([N+](=O)[O-])o1)C(=O)N/N=C/c1ccc([N+](=O)[O-])o1 | 14.7 |  | 28.8 | 4.65 | 5.89 | 35.5 | 36.1 | 7.73 | 11.5 | 6.47 |  |  |  |  |  |  |  |  | 
10 | [O-]c1c[n+](CCCC[n+]2cc([O-])on2)no1 | > 100 | > 100 | > 100 | > 100 | > 100 | > 100 | > 100 | > 100 | > 100 | > 100 |  |  |  |  |  |  |  |  | 
11 | c1ccc(CSC2(SCc3ccccc3)CCCC2)cc1 | > 10 | > 10 | > 10 | > 10 | > 10 | > 10 | > 10 | > 10 | > 10 | > 10 |  |  |  |  |  |  |  |  | 
12 | c1ccc(CSc2ccccc2CN2CCN(Cc3ccccc3SCc3ccccc3)CCN(Cc3ccccc3SCc3ccccc3)CC2)cc1 | 2.21 | 2.39 | 3.82 | 2.67 | 2.67 | 3.54 | 2.83 | 5.72 | 3.23 | 3.3 |  |  |  |  |  |  |  |  | 
13 | C1CCC(OCc2nnn3c2CCC3)OC1 (configuration not stated) |  | > 100 | > 100 | > 100 | > 100 | > 100 | > 100 | > 100 | > 100 | > 100 |  |  |  |  |  |  |  |  | 
14 | NC(=O)c1ccc(NS(=O)(=O)c2ccc(N)cc2)nc1 | > 100 | > 100 | > 100 | > 100 | > 100 |  | > 100 | > 100 | > 100 | > 100 |  |  |  |  |  |  |  |  | 
15 | COC(=O)C(=O)C(C(=O)C1=NS(=O)(=O)c2cc(S(N)(=O)=O)c(Cl)cc2N1)c1nc2ccc(C(=O)c3ccccc3)cc2[nH]c1=O (configuration not stated) | > 100 | > 100 |  | > 100 | > 100 | > 100 | > 100 | > 100 | > 100 | > 100 |  |  |  |  |  |  |  |  | 
16 | Nc1nc(Cl)cc(NCCCNc2cc(Cl)nc(N)n2)n1 | > 100 | > 100 | > 100 | > 100 | > 100 | > 100 | > 100 | > 100 | > 100 | > 100 |  |  |  |  |  |  |  |  | 
17 | CCN1CCN(c2nc3ccccc3nc2C(=O)c2ccc(OC)cc2)CC1 | > 100 | > 100 | 55.5 | > 100 | > 100 | > 100 | > 100 | 70.4 | 45 | > 100 |  |  |  |  |  |  |  |  | 
18 | CS/C(C#N)=C(\C#N)SC | > 100 | 20.9 | > 100 | 79.4 | 6.06 | 34.1 | 31.7 | 20.7 | 14.4 | 5.95 |  |  |  |  |  |  |  |  | 
19 | C=CCc1c(C)nc(C)nc1N/N=C/C=C/c1ccccc1 | > 100 |  | 38.8 | 94 | 97.7 | > 100 | > 100 | 99.9 | 53.4 | > 100 |  |  |  |  |  |  |  |  | 
20 | CNC1C(O)C(NC)C2OC3(O)C(=O)CC(C)OC3OC2C1O (configuration not stated) | > 100 | > 100 | > 100 | > 100 | > 100 | > 100 | > 100 | > 100 | > 100 | > 100 |  |  |  |  |  |  |  |  | 
21 | CN(C)CC1CCCC(CN2CCCCC2)C1=O (configuration not stated) | 7.03 | 33.4 | > 100 | 35.8 | 31.5 | 33.6 | 31.1 | 21.3 | 33.5 | 27.9 |  |  |  |  |  |  |  |  | 
22 | CN(C)CCCNC(=O)c1cc(NC(=O)c2cc(NS(=O)(=O)c3ccc4c(c3)C(=O)c3ccccc3C4=O)cn2C)cn1C | > 100 | > 100 | > 100 | > 100 | > 100 | > 100 | > 100 | > 100 | > 100 | > 100 |  |  |  |  |  |  |  |  | 
23 | Cc1cc(S(=O)(=O)NC(=C(C#N)C#N)[n+]2ccc(N(C)C)cc2)c([S-])cc1Cl | > 100 | > 100 | > 100 | > 100 | > 100 | > 100 | > 100 | > 100 | > 100 | > 100 |  |  |  |  |  |  |  |  | 
24 | Cc1ccccc1[P+](C)(c1ccccc1C)c1ccccc1C | 22.4 | 12.6 | 71.8 | 27.3 | 45.4 | 40.8 | 34.7 | 36.8 | 25.7 | 48.2 |  |  |  |  |  |  |  |  | 
25 | C=C1C(=O)OC2/C=C(\C)C3OC3/C=C(/C(=O)OC)C(O)C(OC(=O)C3(C)OC3C)C12 (configuration not stated) | 2.52 | 4.66 | 35.8 | 3.5 | 5.85 | 5.46 | 6.46 | 9.14 | 5.19 | 3.78 |  |  |  |  |  |  |  |  | 
26 | CC(N)C(=O)OCN1C(=O)C2C3C=CC(C2C1=O)C1C2C(=O)N(COC(=O)C(C)N)C(=O)C2C31 (configuration not stated) | 35.1 | 97.9 | > 100 | 43.2 | 47.8 | 47.2 | 39 | > 100 | 49 | 37.9 |  |  |  |  |  |  |  |  | 
27 | Cc1nc2c(O)cc3c4c(=O)n(C)c(=O)n(C)c4n(Cc4ccccc4)c3c2nc1C | 28 | 40.3 | 33.6 | 38 | 33.1 | 30 | 31.9 | 38.4 | 34 | 34.3 |  |  |  |  |  |  |  |  | 
